Results on 26 molecules are retold here after patent US9938269B2, “Inhibitor compounds of phosphodiesterase type 10A” (ABBVIE INC., priority 2011, dated 2018).

pIC50: −log10 of the molar value. Where a name gives a salt, the structure may show the parent alone.

Series [1] is described as follows: Determination of the microsomal half-life, rat liver microsomes. The conditions noted are these: for microsomal CLint at 0.5 μM: rat, liver microsomes, pH 7.4. (In general: Liver microsomes are a subcellular fraction often used to study metabolism.)
A further series addresses T1, PDE10A (human) (Homo sapiens, UniProt Q9Y233).
T1 construct: purchased BPS Bioscience
Nature of the series: Measurement of PDE activity (HTRF cAMP kit), human PDE10A. The series is classed as biochemical. The conditions noted are these: PDE enzymatic reaction, substrate 20 nM for PDE10, 60 minutes at 29 C. Put shortly: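 HTRF detection of cAMP left after hydrolysis, expressed as percent of uninhibited control to derive IC50. Reaction: serially diluted inhibitor mixed with recombinant enzyme, started with 20 nM cAMP, 60 min at 29 °C in Tris-HCl pH 7.5 buffer containing MgCl2 and BSA.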
For orientation: TR-FRET usually uses a lanthanide donor and a delayed reading to cut background.

Series [2] in a line: Determination of the microsomal half-life, human liver microsomes. The conditions noted are these: for microsomal CLint at 0.5 μM: human, liver microsomes, pH 7.4.

T1 sequence (Q9Y233 whole entry): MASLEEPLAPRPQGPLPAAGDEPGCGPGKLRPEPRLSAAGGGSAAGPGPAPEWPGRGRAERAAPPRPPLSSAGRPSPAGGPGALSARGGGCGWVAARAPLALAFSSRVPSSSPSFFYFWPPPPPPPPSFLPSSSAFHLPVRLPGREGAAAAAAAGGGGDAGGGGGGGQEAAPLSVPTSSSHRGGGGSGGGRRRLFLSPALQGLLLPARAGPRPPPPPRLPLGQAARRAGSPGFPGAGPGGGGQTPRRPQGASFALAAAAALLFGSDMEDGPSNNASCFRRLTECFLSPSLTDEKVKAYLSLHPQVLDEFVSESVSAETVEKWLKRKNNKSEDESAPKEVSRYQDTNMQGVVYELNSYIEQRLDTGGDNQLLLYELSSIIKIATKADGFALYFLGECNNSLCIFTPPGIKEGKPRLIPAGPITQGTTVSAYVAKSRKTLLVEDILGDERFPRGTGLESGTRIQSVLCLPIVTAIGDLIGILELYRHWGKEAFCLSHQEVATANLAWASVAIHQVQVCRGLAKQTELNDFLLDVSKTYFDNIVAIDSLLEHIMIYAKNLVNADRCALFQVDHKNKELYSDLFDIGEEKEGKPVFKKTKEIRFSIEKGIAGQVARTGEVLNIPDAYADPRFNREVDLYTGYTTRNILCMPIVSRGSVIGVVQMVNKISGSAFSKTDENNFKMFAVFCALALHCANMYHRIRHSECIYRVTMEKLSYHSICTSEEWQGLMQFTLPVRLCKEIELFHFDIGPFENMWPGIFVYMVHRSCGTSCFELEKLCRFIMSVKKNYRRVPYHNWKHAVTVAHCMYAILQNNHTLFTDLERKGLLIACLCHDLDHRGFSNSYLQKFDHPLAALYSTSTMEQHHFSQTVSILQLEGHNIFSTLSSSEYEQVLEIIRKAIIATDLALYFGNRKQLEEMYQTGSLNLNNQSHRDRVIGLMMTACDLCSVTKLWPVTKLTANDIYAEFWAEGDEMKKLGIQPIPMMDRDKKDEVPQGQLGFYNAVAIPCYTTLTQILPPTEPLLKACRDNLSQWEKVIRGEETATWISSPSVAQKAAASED

As usually defined, the microsomal CLint is the rate of metabolic loss divided by the concentration. High values mean faster metabolism, low ones greater metabolic stability. As a reminder, the pIC50 is −log10 of the IC50, conventionally taken in molar units. As to `O=C1c2c(cccc2N2CCN(c3ccncc3)CC2)CN1CCc1ccc2ccccc2n1` [Example 106, 7-(4-Pyridin-4-yl-piperazin-1-yl)-2-(2-quinolin-2-yl-ethyl)-2,3-dihydro-isoindol-1-one], the microsomal CLint at 0.5 μM in series [1] is less than 100 µL/min/mg; in series [2], 100 to 220 µL/min/mg. On PDE10A (human), this molecule gave a pIC50 of 6.30 to 6.70.
The matching figures for `Cn1c(CCN2Cc3cccc(-c4cccnc4)c3C2=O)nc2ccccc21` [Example 196, 2-[2-(1-Methyl-1H-benzoimidazol-2-yl)-ethyl]-7-pyridin-3-yl-2,3-dihydro-isoindol-1-one]: less than 100 µL/min/mg, more than 220 µL/min/mg and more than 7.00.
For `Cc1ccc(CCN2Cc3nccc(N4CCOCC4)c3C2=O)nc1` [compound 551, 6-[2-(5-Methyl-2-pyridyl)ethyl]-4-morpholino-7H-pyrrolo[3,4-b]pyridin-5-one] the same measures were less than 100 µL/min/mg, less than 100 µL/min/mg and more than 7.00.
Take `Cc1c(-c2ccnc3c2C(=O)N(CCc2ccc4ccccc4n2)C3)cnn1C` [Example 332, 4-(1,5-Dimethyl-1H-pyrazol-4-yl)-6-(2-quinolin-2-yl-ethyl)-6,7-dihydro-pyrrolo[3,4-b]pyridin-5-one]: the microsomal CLint at 0.5 μM in series [1] and in series [2] was less than 100 µL/min/mg throughout. The molecule further showed a pIC50 against PDE10A (human) of more than 7.00.
Consider `O=C1c2c(cccc2N2C[C@@H]3CCCNC[C@H]3C2)CN1CCc1ccc2ccccc2n1` [Example 317, 7-(3aS,8aR)-Octahydro-pyrrolo[3,4-c]azepin-2-yl-2-(2-quinolin-2-yl-ethyl)-2,3-dihydro-isoindol-1-one trifluoroacetate], for which the results for the microsomal CLint at 0.5 μM in series [1] and in series [2] were less than 100 µL/min/mg and 100 to 220 µL/min/mg, respectively. This molecule also had a pIC50 at PDE10A (human) of 6.30 to 6.70.
For `O=C1c2c(N3CCOCC3)ccnc2CN1CCc1nc2ccccc2o1` [compound 417, 6-[2-(1,3-Benzoxazol-2-yl)ethyl]-4-morpholino-7H-pyrrolo[3,4-b]pyridin-5-one], the microsomal CLint at 0.5 μM in series [1] and in series [2] was less than 100 µL/min/mg in each case. The molecule further had a pIC50 on PDE10A (human) of 6.70 to 7.00.
For the molecule `O=C1c2c(N3CCC(C(F)F)C3)ccnc2CN1CCc1cn2ccccc2n1` (stereo not drawn) [compound 386, 4-[3-(Difluoromethyl)pyrrolidin-1-yl]-6-(2-imidazo[1,2-a]pyridin-2-ylethyl)-7H-pyrrolo[3,4-b]pyridin-5-one], the microsomal CLint at 0.5 μM in series [1] was 100 to 220 µL/min/mg; in series [2], less than 100 µL/min/mg. The pIC50 at PDE10A (human) is more than 7.00.
The matching figures for `O=C1c2nccc(-c3ccncc3)c2CN1CCc1cn2ccccc2n1` [compound 452, 6-(2-Imidazo[1,2-a]pyridin-2-yl-ethyl)-4-pyridin-4-yl-5,6-dihydro-pyrrolo[3,4-b]pyridin-7-one]: less than 100 µL/min/mg, less than 100 µL/min/mg and 6.30 to 6.70.
Regarding `Cn1c(CCN2Cc3nccc(-c4cncnc4)c3C2=O)nc2ccccc21` [Example 364, 6-[2-(1-Methyl-1H-benzoimidazol-2-yl)-ethyl]-4-pyrimidin-5-yl-6,7-dihydro-pyrrolo[3,4-b]pyridin-5-one], the intrinsic metabolic clearance (microsomal CLint) at 0.5 μM in series [1] and in series [2] was less than 100 µL/min/mg throughout. This molecule had a pIC50 against PDE10A (human) of more than 7.00.
As for `COc1ccc(N2CCN(C)CC2)c2c1CN(CCc1ccc3ccccc3n1)C2=O` [Example 261, 4-Methoxy-7-(4-methyl-piperazin-1-yl)-2-(2-quinolin-2-yl-ethyl)-2,3-dihydro-isoindol-1-one di-trifluoroacetate], the microsomal CLint at 0.5 μM was more than 220 µL/min/mg in series [1] and less than 100 µL/min/mg in series [2]. At PDE10A (human), this molecule showed a pIC50 of more than 7.00.
The matching figures for `Cn1nccc1-c1ccnc2c1C(=O)N(CCc1cn3ccccc3n1)C2` [Example 255, 6-(2-Imidazo[1,2-a]pyridin-2-yl-ethyl)-4-(2-methyl-2H-pyrazol-3-yl)-6,7-dihydro-pyrrolo[3,4-b]pyridin-5-one]: less than 100 µL/min/mg, less than 100 µL/min/mg and 6.70 to 7.00.
For `O=C1c2c(N3CCOCC3)ccnc2CN1CCc1nc2ccccn2n1` [Example 227, 4-Morpholin-4-yl-6-(2-[1,2,4]triazolo[1,5-a]pyridin-2-yl-ethyl)-6,7-dihydro-pyrrolo[3,4-b]pyridin-5-one] the same measures were less than 100 µL/min/mg, less than 100 µL/min/mg and more than 7.00.
`O=C(O)C(F)(F)F.O=C(O)C(F)(F)F.O=C1c2c(-c3ccc(F)cc3)ccnc2CN1CCc1ccc2ccccc2n1` [Example 160, 4-(4-Fluoro-phenyl)-6-(2-quinolin-2-yl-ethyl)-6,7-dihydro-pyrrolo[3,4-b]pyridin-5-one (di trifluoroacetate)]: the “Rat mCl (mikrosomal clearance)” value in series [1] (rat liver microsomes, 0.5 μM test substance, 0.25 mg microsomal protein, pH 7.4, 37° C., NADPH) is recorded as “∘ (∘ not avialable or >220 μl min^−1 mg^−1)”. Also, the pIC50 against PDE10A (human) is more than 7.00. Besides, the “Human mCl (mikrosomal clearance)” value in series [2] (human liver microsomes, 0.5 μM test substance, 0.25 mg microsomal protein, pH 7.4, 37° C., NADPH) is recorded as “+ (+: 100-220 μl min^−1 mg^−1)”.
Consider `O=C1c2c(N3CC4COCC4C3)ccnc2CN1CCc1nc2ccccc2s1` (stereo not drawn) [compound 426, 4-(1,3,3a,4,6,6a-Hexahydrofuro[3,4-c]pyrrol-5-yl)-6-[2-(1,3-benzothiazol-2-yl)ethyl]-7H-pyrrolo[3,4-b]pyridin-5-one], for which the microsomal CLint at 0.5 μM in series [1] was less than 100 µL/min/mg; in series [2] it was 100 to 220 µL/min/mg. Further, the pIC50 at PDE10A (human) is more than 7.00.
The matching figures for `COc1ccc(-c2ccnn2C)c2c1C(=O)N(CCc1nc3ccccc3s1)C2` [compound 399, 2-[2-(1,3-Benzothiazol-2-yl)ethyl]-7-methoxy-4-(2-methylpyrazol-3-yl)isoindolin-1-one]: 100 to 220 µL/min/mg, less than 100 µL/min/mg and more than 7.00.
The matching figures for `O=C1c2c(-c3cncnc3)cc[n+]([O-])c2CN1CCc1ccc2ccccc2n1` [Example 296, 1-Oxy-4-pyrimidin-5-yl-6-(2-quinolin-2-yl-ethyl)-6,7-dihydro-pyrrolo[3,4-b]pyridin-5-one]: less than 100 µL/min/mg, less than 100 µL/min/mg and more than 7.00.
The matching figures for `Cc1ccc(CCN2Cc3nccc(-c4ccncc4)c3C2=O)nc1C` [compound 474, 6-[2-(5,6-Dimethyl-2-pyridyl)ethyl]-4-(4-pyridyl)-7H-pyrrolo[3,4-b]pyridin-5-one trifluoroacetate]: 100 to 220 µL/min/mg, 100 to 220 µL/min/mg and 6.70 to 7.00.
`O=C1c2c(cccc2-c2ccncc2)CN1CCc1nc2ccccn2n1` [Example 230, 7-Pyridin-4-yl-2-(2-[1,2,4]triazolo[1,5-a]pyridin-2-yl-ethyl)-2,3-dihydro-isoindol-1-one]: the microsomal CLint at 0.5 μM in series [1] and in series [2] was less than 100 µL/min/mg throughout. The molecule also had a pIC50 at PDE10A (human) of 6.30 to 6.70.
For `O=C1c2c(cccc2N2CCCOCC2)CN1CCc1ccc2ccccc2n1` [Example 110, 7-[1,4]Oxazepan-4-yl-2-(2-quinolin-2-yl-ethyl)-2,3-dihydro-isoindol-1-one hydrochloride], the microsomal CLint at 0.5 μM in series [1] is 100 to 220 µL/min/mg; in series [2], more than 220 µL/min/mg. Further, the pIC50 at PDE10A (human) was more than 7.00.
The matching figures for `Cc1noc(C)c1-c1ccnc2c1C(=O)N(CCc1ccc3ccccc3n1)C2` [Example 335, 4-(3,5-Dimethyl-isoxazol-4-yl)-6-(2-quinolin-2-yl-ethyl)-6,7-dihydro-pyrrolo[3,4-b]pyridin-5-one]: more than 220 µL/min/mg, 100 to 220 µL/min/mg and 6.30 to 6.70.
For the molecule `O=C1c2c(-c3ccncc3)cccc2C(F)(F)N1CCc1ccc2ccccc2n1` [Example 4, 3,3-Difluoro-7-pyridin-4-yl-2-(2-quinolin-2-yl-ethyl)-2,3-dihydro-isoindol-1-one], the microsomal CLint at 0.5 μM in series [1] is more than 220 µL/min/mg; in series [2], 100 to 220 µL/min/mg. Also, the negative logarithm of the IC50 (pIC50) at PDE10A (human) was more than 7.00.
For `O=C1c2c(cccc2-c2cccnc2)CN1CCc1cn2ccccc2n1` [Example 235, 2-(2-Imidazo[1,2-a]pyridin-2-yl-ethyl)-7-pyridin-3-yl-2,3-dihydro-isoindol-1-one] the same measures were less than 100 µL/min/mg, 100 to 220 µL/min/mg and more than 7.00.
For `O=C1c2c(-c3ccncc3)ccnc2CN1CCc1nc2ccc(Cl)cc2s1` [compound 403, 6-[2-(6-Chloro-1,3-benzothiazol-2-yl)ethyl]-4-(4-pyridyl)-7H-pyrrolo[3,4-b]pyridin-5-one] the same measures were 100 to 220 µL/min/mg, less than 100 µL/min/mg and more than 7.00.
The matching figures for `O=C1c2c(-c3ccncc3)ccc(F)c2CN1CCc1cn2ccccc2n1` [Example 280, 4-Fluoro-2-(2-imidazo[1,2-a]pyridin-2-yl-ethyl)-7-pyridin-4-yl-2,3-dihydro-isoindol-1-one]: 100 to 220 µL/min/mg, 100 to 220 µL/min/mg and more than 7.00.
As for `Cc1ccc2c(c1)nc(CCN1Cc3nccc(N4CCOCC4)c3C1=O)n2C` [compound 415, 6-[2-(1,5-Dimethyl-1H-benzoimidazol-2-yl)-ethyl]-4-morpholin-4-yl-6,7-dihydro-pyrrolo[3,4-b]pyridin-5-one], the microsomal CLint at 0.5 μM in series [1] and in series [2] was less than 100 µL/min/mg throughout. The same molecule showed a negative-log IC50 (pIC50) against PDE10A (human) of more than 7.00.
For the molecule `O=C1c2c(N3CCOCC3)ccnc2CN1CCc1ccc2sccc2n1` [compound 491, 4-Morpholino-6-(2-thieno[3,2-b]pyridin-5-ylethyl)-7H-pyrrolo[3,4-b]pyridin-5-one], the intrinsic clearance (microsomal CLint) at 0.5 μM in series [1] and in series [2] was 100 to 220 µL/min/mg in each case. On PDE10A (human), this molecule gave a pIC50 of more than 7.00.
